Experimental data reported in PubChem BioAssay (NCI).
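Method: 48-hour compound exposure of cells in 96-well plates, five concentrations, linear interpolation of endpoints. GI50 = concentration required for 50% inhibition of growth. TGI: total growth inhibition.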

Columns and labels:
Assay in all cases: growth of human tumour cells (NCI), 48 h
SF-295 CNS = system: SF-295 CNS
COLO 205 colon = system: COLO 205 colon
TK-10 renal = system: TK-10 renal
HL-60(TB) leukemia = system: HL-60(TB) leukemia
CAKI-1 renal = system: CAKI-1 renal
A498 renal = system: A498 renal
M14 melanoma = system: M14 melanoma
BT-549 breast = system: BT-549 breast
T-47D breast = system: T-47D breast
MDA-MB-231 breast = system: MDA-MB-231 breast

Compound | GI50 (SF-295 CNS) [µM] | TGI (SF-295 CNS) [µM] | GI50 (COLO 205 colon) [µM] | TGI (COLO 205 colon) [µM] | GI50 (TK-10 renal) [µM] | TGI (TK-10 renal) [µM] | GI50 (HL-60(TB) leukemia) [µM] | TGI (HL-60(TB) leukemia) [µM] | GI50 (CAKI-1 renal) [µM] | TGI (CAKI-1 renal) [µM] | GI50 (A498 renal) [µM] | TGI (A498 renal) [µM] | GI50 (M14 melanoma) [µM] | TGI (M14 melanoma) [µM] | GI50 (BT-549 breast) [µM] | TGI (BT-549 breast) [µM] | GI50 (T-47D breast) [µM] | TGI (T-47D breast) [µM] | GI50 (MDA-MB-231 breast) [µM] | TGI (MDA-MB-231 breast) [µM]
O=C1C(=C([O-])c2ccccc2)C(=O)c2ccccc21.O=C1C(=C([O-])c2ccccc2)C(=O)c2ccccc21.[Fe+2] | 44 | > 100 | 38.2 | > 100 | 88.3 | > 100 | 80.9 | > 100 | > 100 | > 100 | > 100 | > 100 | > 100 | > 100 |  |  |  |  |  | 
Cc1cccc(C)c1NC(=O)/C(=N/NC(N)=S)C(C)C(=O)c1ccc(Cl)cc1 (centres undefined) |  | > 100 |  | > 100 |  | > 100 |  | > 100 |  | > 100 |  | > 100 |  | > 100 |  |  |  |  |  | 
CC/C=C\C/C=C\C/C=C\CCCCCCCC(=O)OCC(O)CO (centres undefined) |  | > 100 |  | > 100 |  | > 100 |  | > 46 |  | 59.8 |  | > 100 |  | > 81.9 |  |  |  |  |  | 
COc1ccc(-c2cc(Cc3cccs3)c(=O)[nH]n2)cc1 |  | > 100 |  | > 100 |  | > 100 |  |  |  |  |  |  |  |  |  |  |  |  |  | 
CCC(=O)C12OC3OC(C)(C)OC3C1OC(C)(C)O2 (centres undefined) |  | > 100 |  |  |  | > 100 |  | > 100 |  | > 100 |  | > 100 |  | > 100 |  |  |  |  |  | 
CCN(CC)CC1c2ccccc2C(CNc2ccccc2)N1C (centres undefined) |  | > 100 |  | > 100 |  | > 100 |  | > 100 |  | > 100 |  |  |  | > 100 |  |  |  |  |  | 
O=C1c2cccnc2C(=O)c2c1c(C(=O)NCCCN1CCCCC1)c1ccccn21 | 0.845 | 8.45 | 0.268 | 0.928 |  |  |  |  |  |  | 1.54 | 3.23 | 1.15 | 2.44 | 2.47 | 6.89 | 1.59 | 4.34 | 0.562 | 7.23
NNC(=O)CS(=O)(=O)Nc1ncccn1 |  | > 100 |  | > 100 |  | > 100 |  |  |  | > 100 |  | > 100 |  | > 100 |  | > 100 |  | > 100 |  | > 100
CCCCCCCCCCCCCCCCCC[n+]1ccc2c(C)c3c(c(C)c2c1)c1cc(O)ccc1n3CC | 1.42 | 4.3 |  |  | 1.49 | 4.13 | 2.33 | 12.4 | 11.5 | 28.7 | 1.19 | 3.86 | 1.43 | 3.34 | 2.72 | 10.5 | 2.57 | 27.3 | 2.76 | 12.7
O=C(/C=C\c1cccc([N+](=O)[O-])c1)/C=C/c1cccc([N+](=O)[O-])c1 | 2.37 | 7.77 | 3.03 | 7.94 | 2.97 | 8.7 |  |  | 4.4 | > 100 | > 100 | > 100 | 2.49 | 7.33 | 3.48 | 12.5 | > 100 | > 100 | 14.4 | > 100
Fc1ccc(/C=N/n2c(-c3ccc(F)c(Cl)c3)nn(CNc3ccccc3C(F)(F)F)c2=S)cc1 | 42.6 | > 100 | 47.7 | > 100 | 38.7 | > 100 | 39.4 | > 100 | > 100 | > 100 | 12.5 | 63.7 | 43.1 | > 100 |  |  | 41.3 | > 100 | 67 | > 100
O=C1CC(c2c[nH]c3ccccc23)C(=O)N1 (centres undefined) |  | > 100 |  |  |  | > 100 |  | > 100 |  | > 100 |  | > 100 |  | > 100 |  |  |  |  |  | 
COc1cc2c3c(n(C)c(=O)c2cc1OC)-c1cc2c(cc1/C3=C\CCCCN1C(=O)c3ccccc3C1=O)OCO2 | 11 | 68.1 | 6.28 | > 100 | 1.11 | 29.1 |  |  | 0.686 | 35.4 | 2.79 | 37.1 | 38.4 | > 100 |  |  |  |  | 13.3 | 38.3
COc1ccc2cc1Oc1ccc(cc1)C[C@H]1c3c(cc4c(c3Oc3cc5c(cc3OC)CCN(C)[C@@H]5C2)OCO4)CCN1C |  |  | 0.356 | 1.36 | 5.87 | 12.2 | 3.54 | 11.9 | 5.13 | 11.9 | 5.93 | 12.1 | 0.903 | 1.76 | 5.12 | 11.8 | 0.988 | 2.05 | 1.1 | 2.87
CC(=O)Nc1ccc(SC#N)c2c(NC(C)=O)cccc12 |  | > 100 |  | > 100 |  | > 100 |  | 71.5 |  | > 100 |  | > 100 |  | > 100 |  |  |  |  |  | 
Cc1c(/C=N/N=C/c2[nH]c(C(=O)OC(C)(C)C)c(C)c2C)[nH]c(C(=O)OC(C)(C)C)c1C |  | > 100 |  | > 100 |  | > 100 |  | > 100 |  | > 100 |  | > 100 |  | > 100 |  |  |  |  |  | 
COc1cc(C(=O)C/C(CCC(=O)Nc2ccccc2[N+](=O)[O-])=N\NC(N)=O)ccc1O |  | > 100 |  | > 100 |  | > 100 |  | > 100 |  | > 100 |  | > 100 |  | > 100 |  |  |  |  |  | 
COC(=O)C1(C)CCc2c(OC)ccc(OC)c2C1=O (centres undefined) |  | > 100 |  | > 100 |  | > 100 |  | > 100 |  |  |  |  |  | > 100 |  |  |  |  |  | 
Fc1ccc(C2SCc3nc4ccccc4n32)c(F)c1 (centres undefined) |  | > 100 |  | > 100 |  | > 100 |  | 56.2 |  | > 100 |  | > 100 |  | > 100 |  |  |  |  |  | 
CC1(O)C=CC(=O)C=C1 |  | > 100 |  | > 100 |  | > 93 |  | 52.8 |  | 91.5 |  | > 78.6 |  | 41.6 |  |  |  |  |  | 
CO/N=C(\COc1ccc2c(c1)[nH]c1ccccc12)c1ccc(F)cc1 | 30.1 | > 100 | > 100 | > 100 | 25.9 | > 100 |  |  | > 100 | > 100 |  |  | > 100 | > 100 | > 100 | > 100 | > 100 | > 100 | 20.1 | > 100
O=C(NC1CCCCC1)NS(=O)(=O)c1ccc2c(c1)CCC2 |  | > 100 |  | > 100 |  | > 100 |  | > 100 |  |  |  |  |  | > 100 |  |  |  |  |  | 
